Experimental data reported in patent US8273753B2, “Polymorph B of N-{2-Fluoro-5-[3-(thiophene-2-carbonyl)-pyrazolo[1,5-a]pyrimidin-7-yl]-phenyl}-N-methyl-acetamide” (Ferrer International, S.A., priority 2006, dated 2012).

Columns and labels:
Assay type in all cases: in vivo
mice [1] = test: EEG recording of the sleep-wake cycle in mice; details: FIG. 7; for Effect on the three sleep parameters (time of wake, slow wave sleep, paradoxical sleep): mice, EEG, doses ED50, 3-fold and 6-fold
Method: This increased sedative/hypnotic efficacy was confirmed by electroencephalographyc (EEG) experiments, when the recording of the sleep-wake cycle in mice was evaluated. Based on the previous experiment, doses were chosen and both compounds were tested at equipotent pharmacological doses (the ED50, 3-fold and 6-fold for both cases).
In FIG. 7, results are expressed as the mean time (min±SEM) spent in each behavioral state during a recording period of 6 h in the same animals (n=9).

mice [2] = test: Two-way active avoidance paradigm in mice (amnesia liability); details: oral administration; for MED amnesia (minimal effective dose that induces statistically significant impairment of memory): two-way active avoidance
Method: Finally, a third experiment to evaluate adverse effects was performed. The model was the two-way active avoidance paradigm, which represents a behavioural test useful for evaluating learning and memory processes in mice. In this case, the amnesia liability index was obtained. Since it was reported that benzodiazepine-like drugs induce amnesia, this index allows to determine the margin between the preclinical effective doses that induce sedation compared to the minimal effective dose that induce statistically significant impairment of memory in mice (MED amnesia/ED50 sedation). Therefore, the amnesic liability index was calculated for both compounds. The results obtained are included in Table 1

mice [3] = test: Spontaneous motor activity in mice after oral administration (induction of sedation); details: for ED50: Mus musculus, oral administration, spontaneous motor activity, read-out: ED50 sedation (dose that induces sedation in 50% of animals)
Method: The effect of oral administration of both indiplon and the compound of the present invention on the spontaneous motor activity in mice is an accepted model to evaluate the induction of the sedation, an experiment considered predictive of hypnotic efficacy. In this experiment, the ED50—the dose that induces sedation in 50% of animals—was calculated.

[4] = mice n=9, 6 h recording period, largest dose

CC(=O)N(C)c1cccc(-c2ccnc3c(C(=O)c4cccs4)cnn23)c1 [Indiplon, N-{3-[3-(thiophene-2-carbonyl)-pyrazolo[1,5-a]pyrimidin-7-yl]-phenyl}-N-methyl-acetamide, reference compound]
Slow wave sleep (SWS) mean time (mice [1]; [4]): less than 140 min
Effect on the three sleep parameters (time of wake, slow wave sleep, paradoxical sleep) (mice [1]): effective only in one parameter (slow wave sleep)
Amnesic liability Index (MED amnesia/ED50 sedation) (mice [2]): 50 fold margin
MED amnesia (minimal effective dose that induces statistically significant impairment of memory) (mice [2]): 10 mg/kg
ED50 (mice [3]): 0.2 mg/kg

CC(=O)N(C)c1cc(-c2ccnc3c(C(=O)c4cccs4)cnn23)ccc1F [Compound (I), N-{2-Fluoro-5-[3-(thiophene-2-carbonyl)-pyrazolo[1,5-a]pyrimidin-7-yl]-phenyl}-N-methyl-acetamide]
Paradoxical sleep (PS) time, change (mice [1]; [4]): increase
Slow wave sleep (SWS) mean time (mice [1]; [4]): up to 140 min
Waking (W) time, change (mice [1]; [4]): decrease
Effect on the three sleep parameters (time of wake, slow wave sleep, paradoxical sleep) (mice [1]): statistically significant improvement on all three of the parameters evaluated
Amnesic liability Index (MED amnesia/ED50 sedation) (mice [2]): 75 fold margin
Greater margin between sedation induction and amnesia than indiplon (mice [2]): 25 fold
MED amnesia (minimal effective dose that induces statistically significant impairment of memory) (mice [2]): 10 mg/kg
ED50 (mice [3]): 0.13 mg/kg
Sedative potency relative to indiplon (more potent) (mice [3]; oral, ED50 0.13 vs 0.2 mg/Kg): 35%
